The results in this text go back to US9845311B2, “Nrf2 activating compounds and uses thereof” (RIGEL PHARMACEUTICALS, INC., priority 2016, dated 2017).

pEC50: −log10 of the molar value. Counter-ions that a name gives are not always drawn. Some results are limits rather than exact numbers.

A short description of test [1]: Glutathione depletion assay (Michael addition to reduced glutathione, followed by 1H NMR). Format: physicochemical. The settings on record: 2 equiv. reduced glutathione, d6-DMSO, 35° C. The source says: See, for example, Lehmann et al. Dimethyfumarate Induces Immunosuppression via Glutathione Depletion and Subsequent Induction of Heme Oxygenase 1, Journal of Investigative Dermatology (2007) 127, 835-845. Accordingly, the present compounds may be assessed in vitro by reaction with glutathione as follows:
(with the top securely fastened).
In all the above cases, dis-appearance of the alkene proton signals from the starting material are used to determine the extent of Michael reaction with glutathione.
As would be understood by those of skill in the art, the above experiments can be repeated by varying the equivalents of reduced glutathione (0.5 to 2 equivalents); the reactions can also be run in a mixture of d6-DMSO and D2O; and the temperature of the reaction can also be varied from room temperature to 35° C. (35° C. being used to mimic body temperature). As used herein “majority reaction” means a greater than 50% reduction in alkene proton signal as observed by ^1H NMR.

For test [2], the system named is NrF2 (Nuclear factor (erythroid-derived 2)-like 2). As to the kind of experiment: NrF2 activation in a whole cell nuclear translocation assay. Format: cell-based. On the procedure:
Compounds are tested in a NrF2 (Nuclear factor (erythroid-derived 2)-like 2) translocation assay by adapting the methods set forth in U.S. Pat. No. 8,101,373, the disclosure of which is incorporated herein by reference. A result of NrF2 activation in the assay by the present compounds is an indication of their anti-inflammatory activity. […] In addition to monomethyl fumarate and dimethyl fumarate, bardoxolone methyl may be used as a positive control.

The subject of test [3] is experimental autoimmune encephalomyelitis (EAE). Briefly: Experimental autoimmune encephalomyelitis (EAE) animal model. Format: in vivo, mice. The settings on record: dosed at 60 mg/kg beginning on the day of immunization.

Take `COC(=O)/C=C/n1nnn(C)c1=O` [methyl (E)-3-(4-methyl-5-oxo-4,5-dihydro-1H-tetrazol-1-yl)acrylate]: the “time to majority reaction with glutathione (greater than 50% reduction in alkene proton signal by 1H NMR)” value in test [1] is not above 30 h.
`COC(=O)/C=C/C(=O)O` [Monomethyl fumarate, monomethylfumarate]: in test [2], the pEC50 was approximately 3.90.
Consider `COC(=O)/C=C/n1nn[nH]c1=O` [methyl (E)-3-(5-oxo-4,5-dihydro-1H-tetrazol-1-yl)acrylate], for which the “onset of disease paralysis” value in test [3] is “significantly prevents the onset of disease paralysis”. In addition, the “time to majority reaction with glutathione (greater than 50% reduction in alkene proton signal by 1H NMR)” value in test [1] is not above 30 h.

As usually defined, the pEC50 is the negative decadic logarithm of the EC50, by convention in mol/L. A high value points to a small EC50.
